Key:
Aβtotal = assay: In vivo efficacy, Method 1: brain soluble Aβtotal lowering 4 h after a single oral dose, ELISA (Table 4a); design: species or system mouse; details: dose 30 mg/kg oral dosing
Excerpt: (§1) To determine whether acute administration of an Aβ42 lowering agent would reduce Aβ42 levels in vivo, non-transgenic rodents, e.g. mice or rats were used. Alternatively, two to three month old Tg2576 mice expressing APP695 containing the “Swedish” variant can be used or a transgenic mouse model developed by Dr. Fred Van Leuven (K.U. Leuven, Belgium) and co-workers, with neuron-specific expression of a clinical mutant of the human amyloid precursor protein [V717I] (Moechars et al., 1999 J. Biol. Chem. 274, 6483). Young transgenic mice have high levels of Aβ in the brain but no detectable Aβ deposition. At approximately 6-8 months of age, the transgenic mice start to display spontaneous, progressive accumulation of β-amyloid (Aβ) in the brain, eventually resulting in amyloid plaques within the subiculum, hippocampus and cortex. Animals treated with the Aβ42 lowering agent were examined and compared to those untreated or treated with vehicle and brain levels of soluble Aβ42 and total Aβ would be quantitated by standard techniques, for example, using ELISA. Treatment periods varied from hours (h) to days and were adjusted based on the results of the Aβ42 lowering once a time course of onset of effect could be established.
(§2) A typical protocol for measuring Aβ42 lowering in vivo is shown but it is only one of many variations that could be used to optimize the levels of detectable Aβ. For example, Aβ42 lowering compounds were formulated in 20% of Captisol® (a sulfobutyl ether of β-cyclodextrin) in water or 20% hydroxypropyl cyclodextrin. The Aβ42 lowering agents were administered as a single oral dose or by any acceptable route of administration to overnight fasted animals. After 4 h, the animals were sacrificed and Aβ42 levels were analysed.
(§3) Blood was collected by decapitation and exsanguinations in EDTA-treated collection tubes. Blood was centrifuged at 1900 g for 10 minutes (min) at 4° C. and the plasma recovered and flash frozen for later analysis. The brain was removed from the cranium and hindbrain. The cerebellum was removed and the left and right hemisphere were separated. The left hemisphere was stored at −18° C. for quantitative analysis of test compound levels. The right hemisphere was rinsed with phosphate-buffered saline (PBS) buffer and immediately frozen on dry ice and stored at −80° C. until homogenization for biochemical assays.
(§4) Mouse brains were resuspended in 10 volumes of 0.4% DEA (diethylamine)/50 mM NaCl pH 10 (for non-transgenic animals) or 0.1% 3-[(3-cholamidopropyl)-dimethyl-ammonio]-1-propanesulfonate (CHAPS) in tris buffered saline (TBS) (for transgenic animals) containing protease inhibitors (Roche-11873580001 or 04693159001) per gram of tissue, e.g. for 0.158 g brain, add 1.58 ml of 0.4% DEA. All samples were sonicated for 30 seconds on ice at 20% power output (pulse mode). Homogenates were centrifuged at 221.300×g for 50 min. The resulting high speed supernatants were then transferred to fresh tubes and were optionally further purified before the next step. A portion of the supernatant was neutralized with 10% 0.5 M Tris-HCl and this was used to quantify Aβtotal.
To quantify the amount of Aβ42 in the soluble fraction of the brain homogenates, commercially available Enzyme-Linked-Immunosorbent-Assay (ELISA) kits were used (e.g. Innotest® β-Amyloid(1-42), Innogenetics N.V., Ghent, Belgium). The Aβ42 ELISA was performed using the plate provided with the kit only. Briefly, the standards (a dilution of synthetic Aβ1-42) were prepared in 1.5 ml Eppendorf tube in Ultraculture, with final concentrations ranging from 25000 to 1.5 pg/ml. Samples, standards and blanks (60 μl) were added to the anti-Aβ42-coated plate (the capture antibody selectively recognizes the C-terminal end of the antigen). The plate was allowed to incubate overnight at 4° C. in order to allow formation of the antibody-amyloid complex. […]

Aβ42 [1] = assay: γ-secretase-modulating activity, Method 2: Aβ42 Alphalisa in supernatant of SKNBE2 cells carrying APP 695-wild type (Table 3b); type: cell-based; details: overnight
Summary of the method: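 Aβ42 in the supernatant was quantified by AlphaLISA sandwich (JRF/cAβ42/26 with JRF/AβN/25). Cells were wild-type APP695 SKNBE2, exposed to compound overnight at 37° C., 5% CO2. Data were normalised to untreated maximum and fitted with a four-parameter curve to give IC50.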

Aβ42 [2] = assay: In vivo efficacy, Method 1: brain soluble Aβ42 lowering 4 h after a single oral dose, ELISA (Table 4a); design: species or system mouse; details: dose 30 mg/kg oral dosing
Excerpt: as §1, §2, §3, §4
The obtained supernatants were purified with Water Oasis HLB reverse phase columns (Waters Corp., Milford, Mass.) to remove non-specific immunoreactive material from the brain lysates prior subsequent Aβ detection. Using a vacuum manifold, all solutions were passed through the columns at a rate of approximately 1 ml per min, so the vacuum pressure was adjusted accordingly throughout the procedure. Columns were preconditioned with 1 ml of 100% MeOH, before equilibration with 1 ml of H2O, Non-neutralized brain lysates were loaded onto the columns. The loaded samples were then washed twice with the first wash performed with 1 ml of 5% MeOH, and the second wash with 1 ml of 30% MeOH. Finally, the Aβ was eluted from the columns and into 100×30 mm glass tubes, with a solution of 90% MeOH with 2% NH4OH. […]

Structure (SMILES) | Aβtotal (% Ctrl) _Mean (Aβtotal) [% Ctrl] | IC50 (Aβ42 [1]; Homo sapiens) [nM] | Aβ42 (% Ctrl) _Mean (Aβ42 [2]) [% Ctrl] | IC50 (Aβ42 [1]) [nM]
COc1cc(-c2nc(C)c(-c3ccccc3)[nH]2)ccc1-n1cnc(C)c1 [Compound 11] | −4 | 182 | 4 | –
COc1cc(-c2nc(-c3ccccc3)n(C)n2)ccc1-n1cnc(C)c1 [Compound 9] | 0 | 603 | 24 | –
COc1cc(-c2nc(Nc3ccc(F)cc3C(F)(F)F)n(C)n2)ccc1-n1cnc(C)c1 [Compound 15] | 3 | – | 42 | 50
COc1cc(-c2nc(Nc3cccc(C(F)(F)F)c3)n(C)n2)ccc1-n1cnc(C)c1 [Compound 146] | 14 | – | 27 | 15

Reference: patent US8946266B2, “Substituted triazole and imidazole derivatives as gamma secretase modulators” (Janssen Pharmaceuticals, Inc., priority 2009, dated 2015)
